In patent publication US6656709B1, “Methods of increasing the production of cobalamins using cob gene expression” (priority 1990, dated 2003):

Key:
[1] = tested on: crude extract of strain SC510 Rif^r; experiment: Enzymatic chelation with cobalt in crude extract of strain SC510 Rif^r; format: biochemical, Pseudomonas denitrificans; details: 7 mM ATP, 200 μM CoCl2
Experimental: A crude extract of strain SC510 Rif^r is obtained by sonication of wet cells (10 g) in 0.2 M Tris-HCl buffer pH 8.0 (20 ml), followed by removal of the cell debris by centrifugation for 1 h at 50,000×g. Proteins (1000 mg) of this extract are incubated for 1 h at 30° C. with carbon-14-labelled hydrogenobyrinic acid diamide (32 nmol; 50 μCi/μmol) in 0.2 M Tris-HCl buffer pH 8.0 (40 ml) containing 7 mM ATP and 200 μM CoCl2. The reaction is stopped by adding 1 M KH2PO4 (7.5 ml) and 0.3 M KCN (6 ml), followed by heating for 10 min at 80° C. […] To confirm that the product is indeed cobyrinic acid a,c-diamide, the product is purified by HPLC and then esterified in methanol containing 5% of sulphuric acid (18 h, 20° C.). […] It should be noted that, under similar incubation conditions in which the radioactive labelling is introduced, not into the hydrogenobyrinic acid a,c-diamide, but into the cobalt (using cobalt-57), cobalt-57-labelled cobyrinic acid a,c-diamide is biosynthesised and the same conclusions could be drawn.

[2] = target: T1, Methanobacterium ivanovii SUMT (Methanobacterium ivanovii, UniProt P29564); experiment: Catalytic properties of purified M. ivanovii SUMT; format: biochemical
T1 construct: endogenous in cells; host or cells: Methanobacterium ivanovii DSM2611 (enzyme purified to homogeneity from the natural organism)
T1 sequence (P29564 2-231 limits assumed): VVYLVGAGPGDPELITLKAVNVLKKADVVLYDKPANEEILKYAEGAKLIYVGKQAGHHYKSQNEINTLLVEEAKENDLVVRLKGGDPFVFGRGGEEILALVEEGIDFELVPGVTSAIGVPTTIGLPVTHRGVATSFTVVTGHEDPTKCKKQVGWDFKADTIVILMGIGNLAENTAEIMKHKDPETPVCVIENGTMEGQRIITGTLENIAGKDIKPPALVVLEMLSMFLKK
Experimental: Methanobacterium ivanovii strain DSM2611 is cultured as described (Souillard et al., 1988). Wet cells (12 g) are obtained. The latter are resuspended in 0.1 M Tris-HCl buffer pH 7.6 (80 ml) containing 5 mM DTT and 1 mM EDTA, and sonicated for 1 h 30 min at 4° C. and then centrifuged for 1 h at 50,000 g. Free tetrapyrrole compounds are then cleared from the extract by passage through a small DEAE-Sephadex A25 column set up in the same buffer. The proteins precipitating at between 55 and 75% ammonium sulphate saturation are solubilised in a 0.1 M Tris-HCl pH 7.5, 0.5 mM DTT, 1.7 M ammonium sulphate buffer and injected onto a Phenyl-Superose HR 10/10 (Pharmacia France/SA) column eluted with a decreasing gradient (1.7 M to 0 M with respect to ammonium sulphate). The active fractions are passed through a Sephadex G-25 column equilibrated with 0.1 M Tris-HCl pH 7.5, 0.5 mM DTT, 25% glycerol buffer (buffer A), then injected onto a Mono Q HR 5/5 (Pharmacia France SA) column equilibrated with buffer A and eluted with a KCl gradient of 0 to 0.3 M; this step is repeated a second time under the same conditions. Gel permeation chromatography of the active fraction of the preceding step on Bio-Sil TSK-250 (BioRad France SA) enables a protein which is homogeneous in SDS-PAGE and in RP-HPLC (C-18 pBondapak) to be obtained. The different steps of purification, with their yield, as well as their purification factor, are described in the table below.
As shown in this table, the total purification factor is more than 4,500. Some properties of the pure enzyme have been studied according to methods already described (Blanche et al., 1989). This enzyme does indeed have SUMT activity, i.e. it does indeed catalyse the SAM-dependant transfer of two methyl groups at C-2 and at C-7 of uro'gen III.
The Vmax of M. ivanovii SUMT was determined. It is 1537 U/mg of proteins. This value is greater than that found for P. denitrificans SUMT, already determined under optimal conditions for the reaction (taking account of its inhibition by uro'gen III), 489 U/mg of proteins (Blanche et al., 1989).

[3] = target: Pseudomonas denitrificans SUMT (Sinorhizobium sp, UniProt P21631); details: cited from earlier work
Pseudomonas denitrificans SUMT, sequence (P21631 whole entry): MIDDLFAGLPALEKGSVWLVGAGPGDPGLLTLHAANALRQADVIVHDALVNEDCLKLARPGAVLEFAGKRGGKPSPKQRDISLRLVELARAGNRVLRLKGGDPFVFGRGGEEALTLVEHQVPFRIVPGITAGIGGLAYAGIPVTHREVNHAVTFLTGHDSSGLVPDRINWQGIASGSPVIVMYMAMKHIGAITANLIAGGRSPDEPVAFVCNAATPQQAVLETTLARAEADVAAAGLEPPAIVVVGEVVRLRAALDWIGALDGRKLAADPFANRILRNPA

Q: With `C/C1=C2N=C(/C=C3\N/C(=C(/C)C4=NC(C)(C5N=C1C(C)(CCC(=O)O)C5CC(=O)O)C(C)(CC(=O)O)C4CCC(=O)O)C(C)(CC(=O)O)C3CCC(=O)O)C(C)(C)C/2CCC(=O)O` (stereo not shown) [hydrogenobyrinic acid] as the compound, how does the “substrate for enzymatic chelation with cobalt” value [1] read?
A: not a substrate

Q: What does the source list for uroporphyrinogen III [uro'gen III]?
A: inhibition by substrate ([2]; at concentrations below 20 μM): does not show inhibition by substrate; Km ([2]; conditions of Blanche et al., 1989): 0.052 µM; concentration above which inhibition by uro'gen III is shown [3]: above 2 μM
